Test results published in patent publication US20250308622A1, “METHODS FOR PREDICTING TRANSCRIPTION FACTOR ACTIVITY” (THE REGENTS OF THE UNIVERSITY OF COLORADO, A BODY CORPORATE, priority 2017, published 2025).

Experiments:
[1] = tested on: 641 available TF-motif models; assay: Differential MD-level analysis before/after Nutlin-3a, all available TF-motif models; assay type: cell-based, human; settings: HCT116 cells, of 641 TF-motif models, p-value<10^−6, FIG. 12A
Text: (§1) The bottom panel of FIG. 4A indicates the change in MD-level (AMDS) following perturbation (y-axis) relative to the number of motifs within 1.5kb of any eRNA origin (x-axis). […] (D) A time series data set following treatment with Flavopiridol Jonkers2014. The y-axis indicates the MD-level change relative to time point 0. Blue dots indicate a MD-level difference <10^−6. A darker shaded line indicates a time trajectory with at least one significant MD-level. (E) Time series data set following treatment with Kdo2-lipid A (KLA) where each time point is normalized to time-matched DMSO Kaikkonen2014. Therefore, the y-axis indicates MD-level difference relative to the time point matched DMSO sample.
(§2) The Motif Displacement score (MD-level) relates the proportion of significant motif sites within some window 2*h divided by the total number of motifs against some larger window 2*H centered at all bidirectional origin events. It is calculated on a per PWM binding model basis.
Let Xj={x1,x2, . . . } be the set of bidirectional origin locations genome wide for some experiment j. Let Yi={y1,y2, . . . } be the set of all significant motif sites for some TF-DNA binding motif model i genome wide, which is static as it only depends on the genome build of interest. Therefore the set of all MD-levels is calculated by equation 10. […]

E4F1 = assay: MD-level time series after flavopiridol; assay type: cell-based; settings: mouse embryonic cells, time series 0-50 minutes relative to time point 0, FIG. 12D
Text: as §1
(§3) In each of the aforementioned perturbations, nascent transcription was assessed at a time point of one hour or less.
(§4) FIG. 12D data set following treatment with Flavopiridol Jonkers2014. The y-axis indicates the MD-level change relative to time point 0. […]
as §2
(§5) Let Xj={x1,x2, . . . } be the set of bidirectional origin locations genome wide for some experiment j. […] Therefore the set of all MD-levels is calculated by equation 10. […]

TP53 = assay: MD-level time series after flavopiridol; assay type: cell-based; settings: mouse embryonic cells, time series 0-50 minutes relative to time point 0, FIG. 12D
Text: as §1, §3, §4, §2, §5

TFs = assay: MD-level time series after flavopiridol, all TFs; assay type: cell-based; settings: mouse embryonic cells
Text: as §1, §3, §4, §2, §5

interferon (IRF7) = assay: MD-level time series after Kdo2-lipid A, normalized to time-matched DMSO; assay type: cell-based; settings: mouse T-cells, 1-24 hour time course, relative to time-matched DMSO, FIG. 12E
Description: (§6) The top panel of FIG. 4A indicates the motif displacement distribution, MD-level, and the number of motifs within […] of any eRNA origin before and after stimulation with Nutlin-3a (e.g., Nutlin) on TP53, the transcription factor known to be activated. […] Blue dots indicate a MD-level difference <10^−6.
(§7) In each of the aforementioned perturbations, nascent transcription was assessed at a time point of one hour or less. Therefore, it was determined whether MD-levels could capture transcription factor activity across broader time frames. […] For a number of TFs, MD-levels trend upward at 12.5 minutes and show significant changes within 25 minutes of exposure.
(§8) GEO SRR numbers of these comparisons are outlined in Table 2.

STAT2 = assay: as above; assay type: cell-based; settings: mouse T-cells, 1-24 hour time course, relative to time-matched DMSO, FIG. 12E
Description: as §6, §7, §8

YBOX1 = assay: as above; assay type: cell-based; settings: mouse T-cells, 1-24 hour time course, relative to time-matched DMSO, FIG. 12E

SMILES: COc1ccc(C2=N[C@@H](c3ccc(Cl)cc3)[C@@H](c3ccc(Cl)cc3)N2C(=O)N2CCNC(=O)C2)c(OC(C)C)c1 [Nutlin-3a]
- TF-motif models displaying elevated MD-levels following treatment [1]: only TP53 and TP63

SMILES: CN1CC[C@H](c2c(O)cc(O)c3c(=O)cc(-c4ccccc4Cl)oc23)[C@H](O)C1 [flavopiridol]
- change in MD-level of E4F1 (E4F1): dramatic and monotonic increase
- change in MD-level of TP53 (TP53): dramatic and monotonic increase
- MD-levels at 12.5 minutes, a number of TFs (TFs; 12.5 minutes of exposure): trend upward
- time of exposure to significant changes in MD-levels, a number of TFs (TFs; significance p<10^−6): ≤ 25 min

SMILES: CCCCCCCCCCCCCC(=O)O[C@H](CCCCCCCCCCC)CC(=O)O[C@@H]1[C@@H](NC(=O)C[C@@H](CCCCCCCCCCC)OC(=O)CCCCCCCCCCC)[C@H](OC[C@H]2O[C@H](OP(=O)(O)O)[C@H](NC(=O)C[C@H](O)CCCCCCCCCCC)[C@@H](OC(=O)C[C@H](O)CCCCCCCCCCC)[C@@H]2O)O[C@H](CO[C@]2(C(=O)O)C[C@@H](O[C@]3(C(=O)O)C[C@@H](O)[C@@H](O)[C@@H]([C@H](O)CO)O3)[C@@H](O)[C@@H]([C@H](O)CO)O2)[C@H]1OP(=O)(O)O [Kdo2-lipid A]
- shifts in MD-level of interferon (IRF7) (interferon (IRF7)): dynamic and time-ordered shifts
- shifts in MD-level of STAT2 (STAT2): dynamic and time-ordered shifts
- change in co-localization (MD-level) of YBOX1 (YBOX1): decreased in co-localization
